Patent publication US7629310B2, “RhoB as a suppressor of cancer cell growth, cell transformation, and metastasis” (University of South Florida, priority 2000, dated 2009)

Experiments:
RhoB promoter = RhoB promoter transcriptional activity (luciferase reporter) in human cancer cell lines A-549, Panc-1, C33A; format: cell-based; conditions: PANC-1 and A-549 cells expressing mutated K-Ras
Source text: Gene Constructs and RhoB Promoter Transcriptional Activity Assay. Constitutively active H-Ras61L, K-RasV12, N-RasV12, and dominant negative […]-Ras were kind gifts from Dr. Channing Der (University of North Carolina) (Khosravi-Far, R. et al., Mol Cell Biol, 1995, 15:6443-53; Quilliam, L. A. et al., Mol Cell Biol, 1994, 14:1113-21). Wild-type RhoA and RhoB were subcloned into hemaglutinin (HA)-tagged pcDNA3 (INVITROGEN). The orientation and the sequences of these genes were confirmed by DNA sequencing facilities at the H. Lee Moffitt Cancer Center, Tampa, Fla. RhoB promoter construct pGEI was kindly provided by Dr Y. Monden (Banyu Tsukuba Research, Japan) (Nakamura et al., 1996). pCMV-β-galactosidase vector was purchased from INVITROGEN. The plasmid containing CA-, DN-PI3K, Mek and Akt were kindly provided by Dr. Julie Y. Djeu (H. Lee Moffitt Cancer and Research Institute, Tampa, Fla.) (Jiang, K. et al., Blood, 2003, 101:236-44). β-galactosidase activity and luciferase assay kits were purchased from PROMEGA Corporation, Madison, Wis. The serum response element (SRE) reporter was provided by Dr. Richard Jove, H. Lee Moffitt Cancer and Research Institute, Tampa, Fla. […] Richard Jove, Oncology program, H. Lee Moffitt Cancer and Research Institute, Tampa, Fla. […] Human EGFR, ErbB2 cDNA construct were kindly provided by Dr. Noreen Luetteke, H. Lee Moffitt Cancer and Research Institute, Tampa, Fla. (Luetteke, N. C. et al., Genes Dev, 1994, 8:399-413). DNA transfection was performed with the standard lipofectamine protocol (INVITROGEN). Briefly, cells were plated in 60-mm plates, pGEI plasmid was used at 2 μg per plate, whereas all the other plasmids were used at 0.1-1.0 μg per plate. After transfection the cells were grown for another 36-48 h. Cells were then washed twice with PBS and lyzed in Promega Passive Lysis Buffer. Aliquots of the lysates were then used to measure the luciferase and β-galactosidase activities. The luciferase values were first divided by β-galactosidase values. The RhoB promoter transcriptional activity was determined by dividing the luciferase/β-Gal values from oncogene-transfected cells by those from pcDNA3-transfected cells. […] All the samples were performed in triplicate and the averages of 3 independent experiments were reported here. Proteins that induce malignant transformation and those that suppress tumorigenesis most likely antagonize each other's functions. […] Du, W. et al., Mol Cell Biol, 1999, 19:1831-40; Du, W. and Prendergast, G. C., Cancer Res, 1999, 59:5492-6). An objective of the experiments described herein was to determine whether oncogenes that are prevalent in human cancers suppress RhoB expression, and whether RhoB antagonizes the ability of these oncogenes to induce malignant transformation. To this end, the effects of several oncogenes on RhoB promoter transcriptional activity were first evaluated. NIH3T3 cells and human cancer cell lines derived from lung (A-549), pancreatic (Panc-1) and cervical (C33A) tumors were transiently transfected with pcDNA3 empty vectors or pcDNA3 constructs containing various oncogenes along with full length RhoB promoter firefly luciferase reporter and SRE-renilla luciferase reporter as well as a β-gal reporter for controlling transfection efficiency as described in the Materials and Methods section.

RhoB protein levels = assay: RhoB protein level by Western blotting in NIH3T3 cells; format: cell-based; conditions: NIH3T3, 5-FU for 36 hrs (FIG. 2C)
H-Ras/3T3 cells = assay: Invasion through […]-coated transfilters, H-Ras/3T3 cells; format: cell-based; conditions: H-Ras/3T3 cells (FIG. 9A)
Method: (§1) HRas/3T3 cells (FIG. 9A) and PANC-1 cells (FIG. 9B) were transiently transfected with pcDNA3 vector control, H-Ras61L, CA-Akt, or WT-Akt in the presence or absence of RhoA, RhoB, or pcDNA3 for 36 hours. The cells were then split and analyzed for their invading capabilities through […]-coated transfilters as described in the Materials and Methods section. PANC-1 and PC3 cells (FIG. 9C) were transiently transfected with pcDNA3, with H-Ras61L in the presence or absence of RhoA, or RhoB for 36 hours. The cells were then serum-starved for another 36 hours; the conditioned medium was collected and 20 μg protein were analyzed for MMP-2 expression by Western Blotting.
(§2) Whether RhoB can also antagonize cell invasion was evaluated. To this end, H-Ras/3T3 and PANC-1 cells were similarly transfected as above with various oncogenes along with RhoA or RhoB, then seeded onto […]-coated poly-hydrocarbonate filters mounted in the middle of a Boyden transwell apparatus as described under Methods. […] Furthermore, transfection with CA-Akt or WT-Akt enhanced invasion; and RhoB, not RhoA, inhibited this enhancement of invasion (FIGS. 9A and 9B).

PANC-1 cells = assay: Invasion through […]-coated transfilters, PANC-1 cells; format: cell-based, human; conditions: PANC-1 cells (FIG. 9B)
Method: as §1, §2

5-FU induction of RhoB promoter activity (RhoB promoter) | Molecule | induction of RhoB protein levels (RhoB protein levels) [fold] | invasion through MATRIGEL (H-Ras/3T3 cells) | invasion through MATRIGEL (PANC-1 cells)
both cell lines are resistant to 5-FU | O=c1[nH]cc(F)c(=O)[nH]1 [5-FU, 5-fluorouracil] | 3 | – | –
– | RhoA: closely related family member sharing 86% sequence identity with RhoB; wild-type, in HA-tagged pcDNA3, transfected as control | – | invaded | invaded
